One experiment concerns the target recombinant human HDAC6 (Homo sapiens (Human), UniProt Q9UBN7). The experiment is described as follows: Enzymatic screening, HDAC6 inhibition (fluorogenic FdL_G substrate). It is filed as biochemical. The method in brief:
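Enzyme was preincubated with compound (8 doses, triplicate, 1% DMSO) in 25 mM Tris-HCl pH 8, 130 mM NaCl, 0.05% Tween-20, 10% glycerol, with BSA. A FLUOR DE LYS-Green substrate was then added, and fluorescence was read after developer plus 2 μM TSA.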

A further experiment has as its target recombinant human HDAC1 (Homo sapiens (Human), UniProt Q13547). The experiment is described as follows: Enzymatic screening, HDAC1 inhibition (fluorogenic FdL_G substrate). In kind it is biochemical. The method in brief: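 Recombinant human HDAC1 inhibition was measured fluorometrically using the FLUOR DE LYS-Green (FdL_G) substrate. Compounds at 8 doses (1% DMSO final) in Tris-HCl pH 8 buffer with NaCl, Tween-20 and glycerol were preincubated in triplicate with enzyme and 1 mg/mL BSA, then given substrate. Developer I plus 2 μM TSA was added, and fluorescence read after 25 minutes in the dark.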

Data on 26 compounds can be found in US20230286970A1, “NOVEL OXADIAZOLE-BASED SELECTIVE HDAC6 INHIBITORS” (ITALFARMACO S.P.A., priority 2020, published 2023).

A word on the IC50: it is the concentration that inhibits the measured activity by half.

Chain of recombinant human HDAC6 (Q9UBN7 whole entry): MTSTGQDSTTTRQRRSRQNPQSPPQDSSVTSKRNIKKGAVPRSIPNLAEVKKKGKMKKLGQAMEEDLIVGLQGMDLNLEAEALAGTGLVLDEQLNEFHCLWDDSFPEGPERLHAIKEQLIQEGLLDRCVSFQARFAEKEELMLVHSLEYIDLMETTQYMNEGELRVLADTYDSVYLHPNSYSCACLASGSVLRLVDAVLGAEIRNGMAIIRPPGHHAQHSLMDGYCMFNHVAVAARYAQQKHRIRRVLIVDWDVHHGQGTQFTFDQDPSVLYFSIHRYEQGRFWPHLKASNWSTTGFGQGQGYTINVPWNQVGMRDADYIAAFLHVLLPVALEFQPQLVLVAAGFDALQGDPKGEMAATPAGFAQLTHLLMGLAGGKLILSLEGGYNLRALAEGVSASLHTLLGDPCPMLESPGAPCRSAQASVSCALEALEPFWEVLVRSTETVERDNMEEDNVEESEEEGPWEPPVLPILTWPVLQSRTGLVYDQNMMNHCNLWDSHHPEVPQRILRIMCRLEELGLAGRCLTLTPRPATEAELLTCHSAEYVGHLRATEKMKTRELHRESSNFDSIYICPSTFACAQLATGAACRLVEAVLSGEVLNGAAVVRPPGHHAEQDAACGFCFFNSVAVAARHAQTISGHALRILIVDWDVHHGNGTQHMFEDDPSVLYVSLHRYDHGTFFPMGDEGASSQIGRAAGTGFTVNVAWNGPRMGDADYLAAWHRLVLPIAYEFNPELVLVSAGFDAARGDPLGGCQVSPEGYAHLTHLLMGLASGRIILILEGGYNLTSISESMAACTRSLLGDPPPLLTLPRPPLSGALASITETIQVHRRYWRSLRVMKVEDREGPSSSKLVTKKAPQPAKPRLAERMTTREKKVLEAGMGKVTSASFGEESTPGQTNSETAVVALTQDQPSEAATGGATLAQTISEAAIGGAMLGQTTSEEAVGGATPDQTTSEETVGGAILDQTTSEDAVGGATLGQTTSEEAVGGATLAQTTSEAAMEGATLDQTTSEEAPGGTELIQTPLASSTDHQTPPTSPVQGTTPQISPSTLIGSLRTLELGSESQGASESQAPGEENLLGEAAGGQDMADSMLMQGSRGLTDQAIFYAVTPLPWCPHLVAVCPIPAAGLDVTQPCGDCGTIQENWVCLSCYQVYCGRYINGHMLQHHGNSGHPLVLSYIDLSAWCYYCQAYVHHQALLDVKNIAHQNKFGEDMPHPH
Chain of recombinant human HDAC1 (Q13547 whole entry): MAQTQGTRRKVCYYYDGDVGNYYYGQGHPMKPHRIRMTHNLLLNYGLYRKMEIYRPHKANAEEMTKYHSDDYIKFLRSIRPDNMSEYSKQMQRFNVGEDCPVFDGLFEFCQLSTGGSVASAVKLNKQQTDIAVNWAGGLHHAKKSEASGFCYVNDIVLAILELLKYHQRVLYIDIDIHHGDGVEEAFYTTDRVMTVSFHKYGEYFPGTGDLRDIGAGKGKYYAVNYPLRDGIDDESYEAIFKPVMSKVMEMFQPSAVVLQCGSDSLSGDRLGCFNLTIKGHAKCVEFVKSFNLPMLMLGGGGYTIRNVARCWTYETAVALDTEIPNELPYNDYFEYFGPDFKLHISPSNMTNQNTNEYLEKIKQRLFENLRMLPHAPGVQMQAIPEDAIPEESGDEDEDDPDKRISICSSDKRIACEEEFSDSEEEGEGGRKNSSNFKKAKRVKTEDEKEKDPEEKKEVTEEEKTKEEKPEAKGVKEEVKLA

For `CN(Cc1ccncc1)Cc1ccc(-c2cn(Cc3ccc(-c4nnc(C(F)F)o4)cc3)nn2)cc1` [compound 282, N-(4-(1-(4-(5-(difluoromethyl)-1,3,4-oxadiazol-2-yl)benzyl)-1H-1,2,3-triazol-4-yl)benzyl)-N-methyl-1-(pyridin-4-yl)methanamine], the IC50 at recombinant human HDAC6 is 282 nM; on recombinant human HDAC1, > 200000 nM.
On to `O=C(Nc1cccc(-c2cn(Cc3ccc(-c4nnc(C(F)F)o4)cc3)cn2)c1)N1CCOCC1` [compd. 267, N-(3-(1-(4-(5-(difluoromethyl)-1,3,4-oxadiazol-2-yl)benzyl)-1H-imidazol-4-yl)phenyl)morpholine-4-carboxamide], for which the values for the IC50 at recombinant human HDAC6 and at recombinant human HDAC1 were 85 nM and > 200000 nM, respectively.
In the same order, the values of `O=C(Nc1cccc(-c2cn(Cc3cc(F)c(-c4nnc(C(F)F)o4)cc3F)nn2)c1)N1CCOCC1` [compound 363, N-[3-[1-[[4-[5-(difluoromethyl)-1,3,4-oxadiazol-2-yl]-2,5-difluorophenyl]methyl]triazol-4-yl]phenyl]morpholine-4-carboxamide] are 29 nM and > 1e+06 nM.
Regarding `CN(C)C(=O)Nc1cc(-c2nnn(Cc3ccc(-c4nnc(C(F)F)o4)cc3)n2)ccc1O` [compound 31, 3-(5-(2-(4-(5-(difluoromethyl)-1,3,4-oxadiazol-2-yl)benzyl)-2H-tetrazol-5-yl)-2-hydroxyphenyl)-1,1-dimethylurea], the IC50 on recombinant human HDAC6 was 14 nM; on recombinant human HDAC1 it was > 200000 nM.
Consider `Nc1nc2ccc(-c3cn(Cc4ccc(-c5nnc(C(F)F)o5)c(F)c4F)nn3)cc2s1` [compound 341, 6-[1-[[4-[5-(difluoromethyl)-1,3,4-oxadiazol-2-yl]-2,3-difluorophenyl]methyl]triazol-4-yl]-1,3-benzothiazol-2-amine], for which the IC50 at recombinant human HDAC6 is 135 nM; at recombinant human HDAC1 it was > 1e+06 nM.
In the same order, the values of `FC(F)c1nnc(-c2ccc(Cn3nnc(-c4cccc(-c5nc6c([nH]5)CCNC6)c4)n3)nc2)o1` [compound 276, 2-(difluoromethyl)-5-(6-((5-(3-(4,5,6,7-tetrahydro-1H-imidazo[4,5-c]pyridin-2-yl)phenyl)-2H-tetrazol-2-yl)methyl)pyridin-3-yl)-1,3,4-oxadiazole] are 9 nM and 165000 nM.
On to `O=C1Nc2cc(-c3cn(Cc4ccc(-c5nnc(C(F)F)o5)cc4)nn3)ccc2C12CCNCC2` [compound 161, 6-(1-(4-(5-(difluoromethyl)-1,3,4-oxadiazol-2-yl)benzyl)-1H-1,2,3-triazol-4-yl)spiro[indoline-3,4′-piperidin]-2-one], for which the IC50 was 75 nM at recombinant human HDAC6 and > 200000 nM on recombinant human HDAC1.
The matching figures for `Nc1ccc(-c2cn([C@H](CN3CCCC3)c3ccc(-c4nnc(C(F)F)o4)cc3)nn2)cn1` [compound 313, 5-[1-[(1S)-1-[4-[5-(difluoromethyl)-1,3,4-oxadiazol-2-yl]phenyl]-2-pyrrolidin-1-ylethyl]triazol-4-yl]pyridin-2-amine]: 308 nM and > 1e+06 nM.
Turning to `CS(=O)(=O)NCC[C@H](c1ccc(-c2nnc(C(F)F)o2)cc1)n1cc(-c2ccc(N)nc2)nn1` [compound 311, N-[(3R)-3-[4-(6-aminopyridin-3-yl)triazol-1-yl]-3-[4-[5-(difluoromethyl)-1,3,4-oxadiazol-2-yl]phenyl]propyl]methanesulfonamide], the values for the IC50 on recombinant human HDAC6 and at recombinant human HDAC1 were 25 nM and > 1e+06 nM, respectively.
Consider `Nc1nc2cc(-c3cnn(Cc4ccc(-c5nnc(C(F)F)o5)cn4)c3)ccc2[nH]1` [compound 331, 5-[1-[[5-[5-(difluoromethyl)-1,3,4-oxadiazol-2-yl]pyridin-2-yl]methyl]pyrazol-4-yl]-1H-benzimidazol-2-amine], for which the values for the IC50 at recombinant human HDAC6 and at recombinant human HDAC1 were 52 nM and > 1e+06 nM, respectively.
For the compound `Fc1c(Cn2cnc(-c3ccc(NC4=NCCN4)cc3)c2)ccc(-c2nnc(C(F)F)o2)c1F` [compound 359, N-[4-[1-[[4-[5-(difluoromethyl)-1,3,4-oxadiazol-2-yl]-2,3-difluorophenyl]methyl]imidazol-4-yl]phenyl]-4,5-dihydro-1H-imidazol-2-amine], the IC50 on recombinant human HDAC6 was 11 nM; at recombinant human HDAC1, > 1e+06 nM.
The matching figures for `Nc1nccc2cc(-c3nnn(Cc4cc(F)c(-c5nnc(C(F)F)o5)cc4F)n3)ccc12` [compound 396, 6-[2-[[4-[5-(difluoromethyl)-1,3,4-oxadiazol-2-yl]-2,5-difluorophenyl]methyl]tetrazol-5-yl]isoquinolin-1-amine]: 60 nM and 1e+06 nM.
The matching figures for `Fc1cc(Cc2nc(-c3ccc(NC4=NCCN4)cc3)no2)ccc1-c1nnc(C(F)F)o1` [compound 383, N-(4-(5-(4-(5-(difluoromethyl)-1,3,4-oxadiazol-2-yl)-3-fluorobenzyl)-1,2,4-oxadiazol-3-yl)phenyl)-4,5-dihydro-1H-imidazol-2-amine]: 13 nM and > 1e+06 nM.
The matching figures for `Cn1c(N)nc2cc(-c3nnnn3Cc3ncc(-c4nnc(C(F)F)o4)cn3)ccc21` [compound 291, 5-(1-((5-(5-(difluoromethyl)-1,3,4-oxadiazol-2-yl)pyrimidin-2-yl)methyl)-1H-tetrazol-5-yl)-1-methyl-1H-benzo[d]imidazol-2-amine]: 129 nM and > 200000 nM.
Take `FC(F)c1nnc(-c2ccc(Cn3nnc(-c4cccc(-c5cnn6c5CNCC6)c4)n3)cc2)o1` [compound 111, 2-(difluoromethyl)-5-(4-((5-(3-(4,5,6,7-tetrahydropyrazolo[1,5-a]pyrazin-3-yl)phenyl)-2H-tetrazol-2-yl)methyl)phenyl)-1,3,4-oxadiazole]: the 50% inhibitory concentration (IC50) is 42 nM on recombinant human HDAC6 and > 200000 nM on recombinant human HDAC1.
Turning to `O=C(Nc1ccc(-c2cn(Cc3ncc(-c4nnc(C(F)F)o4)cn3)nn2)cn1)C(F)F` [Compd. 88, N-(5-(1-((5-(5-(difluoromethyl)-1,3,4-oxadiazol-2-yl)pyrimidin-2-yl)methyl)-1H-1,2,3-triazol-4-yl)pyridin-2-yl)-2,2-difluoroacetamide], the IC50 on recombinant human HDAC6 was 34 nM; on recombinant human HDAC1, > 200000 nM.
Turning to `CC(=O)N1CCC(c2nnn(Cc3ccc(-c4nnc(C(F)F)o4)cc3)n2)CC1` [compound 257, 1-(4-(2-(4-(5-(difluoromethyl)-1,3,4-oxadiazol-2-yl)benzyl)-2H-tetrazol-5-yl)piperidin-1-yl)ethan-1-one], the half-maximal inhibitory concentration (IC50) on recombinant human HDAC6 was 395 nM; on recombinant human HDAC1, > 200000 nM.
`CNc1ncc2cc(-c3cn(Cc4ccc(-c5nnc(C(F)F)o5)cc4F)nn3)ccc2n1` [compound 390, 6-[1-({4-[5-(difluoromethyl)-1,3,4-oxadiazol-2-yl]-2-fluorophenyl}methyl)-1H-1,2,3-triazol-4-yl]-N-methylquinazolin-2-amine]: the IC50 at recombinant human HDAC6 is 116 nM; at recombinant human HDAC1, 1e+06 nM.
In the case of `Nc1ccc(-c2cn(Cc3c(F)cc(-c4nnc(C(F)F)o4)cc3F)nn2)cn1` [compound 42, 5-(1-(4-(5-(difluoromethyl)-1,3,4-oxadiazol-2-yl)-2,6-difluorobenzyl)-1H-1,2,3-triazol-4-yl)pyridin-2-amine], the IC50 at recombinant human HDAC6 was 19 nM; on recombinant human HDAC1, > 200000 nM.
`Nc1ncnc2sc(-c3cn(Cc4c(F)cc(-c5nnc(C(F)F)o5)cc4F)nn3)cc12` [compound 386, 6-(1-(4-(5-(difluoromethyl)-1,3,4-oxadiazol-2-yl)-2,6-difluorobenzyl)-1H-1,2,3-triazol-4-yl)thieno[2,3-d]pyrimidin-4-amine]: the IC50 was 40 nM at recombinant human HDAC6 and 1e+06 nM on recombinant human HDAC1.
The matching figures for `NC(=O)c1cccc(-c2cn(Cc3ccc(-c4nnc(C(F)F)o4)cc3)cn2)c1` [compound 223, 3-(1-(4-(5-(difluoromethyl)-1,3,4-oxadiazol-2-yl)benzyl)-1H-imidazol-4-yl)benzamide]: 161 nM and > 200000 nM.
`Cn1c(=O)[nH]c2cc(-c3nnn(Cc4ccc(-c5nnc(C(F)F)o5)cc4)n3)ccc21` [compound 210, 5-(2-(4-(5-(difluoromethyl)-1,3,4-oxadiazol-2-yl)benzyl)-2H-tetrazol-5-yl)-1-methyl-1,3-dihydro-2H-benzo[d]imidazol-2-one]: the IC50 was 138 nM at recombinant human HDAC6 and > 200000 nM at recombinant human HDAC1.
On to `O=c1[nH]c2ccc(-c3nnn(Cc4ccc(-c5nnc(C(F)F)o5)cc4)n3)cc2[nH]1` [compound 168, 5-(2-(4-(5-(difluoromethyl)-1,3,4-oxadiazol-2-yl)benzyl)-2H-tetrazol-5-yl)-1,3-dihydro-2H-benzo[d]imidazol-2-one], for which the results for the IC50 on recombinant human HDAC6 and on recombinant human HDAC1 were 79 nM and > 200000 nM, respectively.
In the case of `CN(C)S(=O)(=O)c1ccc(F)c(-c2nnn(Cc3ccc(-c4nnc(C(F)F)o4)cc3)n2)c1` [compound 163, 3-(2-(4-(5-(difluoromethyl)-1,3,4-oxadiazol-2-yl)benzyl)-2H-tetrazol-5-yl)-4-fluoro-N,N-dimethylbenzenesulfonamide], the IC50 on recombinant human HDAC6 is 77 nM; on recombinant human HDAC1, > 200000 nM.
The matching figures for `CN(Cc1ccc(-c2nc(Cc3ccc(-c4nnc(C(F)F)o4)cc3)no2)cc1)C(=O)C(F)F` [compound 259, N-(4-(3-(4-(5-(difluoromethyl)-1,3,4-oxadiazol-2-yl)benzyl)-1,2,4-oxadiazol-5-yl)benzyl)-2,2-difluoro-N-methylacetamide]: 439 nM and > 200000 nM.
With `NC(=O)c1cccc(-c2cn(Cc3ccc(-c4nnc(C(F)F)o4)cn3)cn2)c1` [compd. 305, 3-[1-[[5-[5-(difluoromethyl)-1,3,4-oxadiazol-2-yl]pyridin-2-yl]methyl]imidazol-4-yl]benzamide], the IC50 was 23 nM on recombinant human HDAC6 and > 1e+06 nM on recombinant human HDAC1.
